Measurements: US8252825B2, “Angiotensin II receptor antagonists” (NicOx, priority 2007, dated 2012)

Key:
[1] = tested on: conscious telemetered dogs; assay: Systolic blood pressure lowering after oral administration to conscious telemetered dogs; format: in vivo, dog; conditions: 10 mg/kg
From the text: Compounds 1 and 2 shown below were studied for systolic blood pressure lowering when orally administered to conscious telemetered dogs.

[2] = tested on: isolated rabbit thoracic aorta preparations; assay: Vessel relaxation assay in isolated rabbit thoracic aorta rings; format: cell-based; conditions: Oryctolagus cuniculus; rabbit aortic rings precontracted with noradrenaline, functional endothelium
Protocol: The ability of the compounds to induce vasorelaxation was tested in vitro in isolated rabbit thoracic aorta preparations (Wanstall J. C. et al., Br. J. Pharmacol., 134:463-472, 2001). Male New Zealand rabbits were anaesthetized with thiopental-Na (50 mg/kg, iv), sacrificed by exsanguinations and then the thorax was opened and the aorta dissected. Aortic ring preparations (4 mm in length) were set up in physiological salt solution (PSS) at 37° C. in small organ chambers (5 ml). The composition of PSS was (mM): NaCl 130, NaHCO3 14.9, KH2PO4 1.2, MgSO4 1.2, HEPES 10, CaCl2, ascorbic acid […] and glucose 1.1 (95% O2/5% CO2; pH 7.4). Each ring was mounted under 2 g passive tension. Isometric tension was recorded with a Grass transducer (Grass FT03) attached to a BIOPAC MP150 System. Preparations were allowed to equilibrate for 1 h, and then contracted submaximally with noradrenaline (NA, 1 μM) and, when the contraction was stable, acetylcholine (ACh, 10 μM) was added. A relaxant response to ACh indicated the presence of a functional endothelium. […] When a stable precontraction was reached, a cumulative concentration-response curve to either of the vasorelaxant agents was obtained in the presence of a functional endothelium. Each arterial ring was exposed to only one combination of inhibitor and vasorelaxant. […]
Example 3 and 4 were evaluated for vessel relaxation.

| SMILES | Approximate change in systolic blood pressure (mmHg), 1-6 h ([1]; 1-6 h) | Approximate change in systolic blood pressure (mmHg), 6-12 h ([1]; 6-12 h) | Approximate change in systolic blood pressure (mmHg), 12-18 h ([1]; 12-18 h) | EC50 [2] |
| --- | --- | --- | --- | --- |
| CCCCc1nc(Cl)c(C(=O)OC(C)OC(=O)OCCCC[C@H](CO[N+](=O)[O-])O[N+](=O)[O-])n1Cc1ccc(-c2ccccc2-c2nnn[nH]2)cc1 (some centres unmarked) [Compound 1] | −14 mmHg | −7 mmHg | 3 mmHg |  |
| CCOc1nc2cccc(C(=O)OC(C)(C)OC(=O)OCCC(C)[C@@H](O[N+](=O)[O-])[C@@H](C)O[N+](=O)[O-])c2n1Cc1ccc(-c2ccccc2-c2nnn[nH]2)cc1 (stereo partly drawn) [Example 4, 1-[({[(4R,5R)-3 Methyl-4,5-bis(nitrooxy)hexyl]oxy}carbonyl)oxy]-1-methylethyl 2-ethoxy-1-{[2′-(1H-tetrazol-5-yl)biphenyl-4-yl]methyl}-1H-benzimidazole-7-carboxylate] |  |  |  | 6.4 µM |
| CCCCc1nc(Cl)c(C(=O)OC(C)OC(=O)OCCC(C)[C@@H](O[N+](=O)[O-])[C@@H](C)O[N+](=O)[O-])n1Cc1ccc(-c2ccccc2-c2nnn[nH]2)cc1 (stereo partly drawn) [Example 3, 1-[({[(4R,5R)-3-methyl-4,5-bis(nitrooxy)hexyl]oxy}carbonyl)oxy]ethyl 2-butyl-4-chloro-1-{[2′-(1H-tetrazol-5-yl)biphenyl-4-yl]methyl}-1H-imidazole-5-carboxylate] |  |  |  | 8.5 µM |
